Data on twelve compounds can be found in patent US4657928A, “Organic copper complexes as radioprotectants” (priority 1984, dated 1987).

Where two headings read alike, the source gives them in different places.

A short description of data set [1]: SOD-like activity: inhibition of superoxide reduction of nitroblue tetrazolium (DMSO-KO2 / xanthine-xanthine oxidase). The data set is classed as biochemical. Particulars: for IC50 / Percent Reactivity (SOD-like activity): Table I; for IC50: read-out: Concentration: compound required for 50% inhibition of superoxide reduction of nitroblue tetrazolium; for Percent Reactivity (SOD-like activity): relative to Cu-Zn SOD = 100.

The conditions of data set [2]: cited from earlier work.
The conditions of data set [3]: pH 12; cited from earlier work.
The conditions of data set [4]: pH 7.0; cited from earlier work.
For the next data set, the system named is patients. Particulars: ongoing clinical trials; cited from earlier work.
The subject of a further data set is rats. Put plainly: Acute toxicity in rats (subcutaneous). The class given is in vivo. The protocol: (§1) The particular embodiment described in complete detail herein concerns the use of Cu(II)(3,5-dips)2. […] A minimum prophylatic dose would be about 0.001 mg/kg, while a therapeutic dose would range from about 1 mg to 100 mg/kg, depending upon the radiation dose. Therapeutic doses would be initiated about two weeks before radiotherapy, and would continue as necessary after the radiation treatment. For cases of accidental exposure, treatment would be initiated immediately after exposure and continued as necessary thereafter. Prophylactic doses would be taken on a continuing basis, for example a daily basis, as long as the recurrent radiation exposure continued. In any of these cases, the route of administration might be oral, topical, rectal or parenteral (e.g., intramuscular, intravenous, subcutaneous, or intraperitoneal).
Copper 3,5-diisopropylsalicylate was synthesized according to the method of Sorenson, J. Med. Chem. 19:135 (1976), which is incorporated herein by reference.

The next data set relates to human beings. In words: Predicted toxicity in human beings by extrapolation. Particulars: per body weight. The protocol:
as §1

Data set [5] is described as follows: Rate of superoxide dismutation. The class given is biochemical. The following applies: Table I. An excerpt:
The enzyme superoxide dismutase (SOD) plays a significant role in the defense against oxygen toxicity in aerobic organisms. Superoxide dismutase catalyzes the dismutation of O2^-, as follows:.
2 ^- O-O^. +2H^+ →H2 O2 +^. O-O^.
**Weser, et al., In "Inflammatory Diseases and Copper", Sorenson (ed.),
Humana Press: Clifton, New Jersey (1982), p. 513

The subject of the next data set is lethally irradiated mice. Put plainly: Radioprotection: survival of lethally irradiated (60Co) mice. The class given is in vivo, female B6CBFl mice. The protocol:
One group of 22-control and two groups of 24-treated 8 to 10 week old female B6CBFl mice (Cumberland View Farms, Clinton, Tennessee) were used. Control animals were given a subcutaneous (sc) injection of 0.3 ml of vehicle (0.25% Tween 80 in 0.9% pyrogen-free sterile saline) 24 hours before irradiation. One treatment group was given a single sc injection of 0.49 mM/kg of Cu(II)(3,5-dips)2 in 0.3 ml of vehicle 3 hours before irradiation and the other group was given the same treatment 24 hours before irradiation.
This radiation dose was measured with an electrometer connected to 0.05 ml NBS calibrated ion chambers positioned inside wax phantom mice placed in plexiglass cages. The tissue to air ratio for these phantom mice has been determined to be 97 percent. Control and treated mice were housed 5 mice per cage and fed mouse chow and water ad libitum for the 30 day observation period.

The next data set deals with mice. Put plainly: Acute toxicity in mice (subcutaneous). The class given is in vivo. The following applies: subcutaneous injection, 10080 min. The protocol: as §1
Setting [6] is: 0.49 mM/kg sc 3 hours before 10 Gy, 30 day observation.
Setting [7] is: 0.49 mM/kg sc 24 hours before 10 Gy, 30 day observation.

As for `CC(=O)Oc1ccccc1C(=O)[O-].CC(=O)Oc1ccccc1C(=O)[O-].CC(=O)Oc1ccccc1C(=O)[O-].CC(=O)Oc1ccccc1C(=O)[O-].CS(C)=O.CS(C)=O.[Cu+2].[Cu+2]` [Cu(II)2 (acetylsalicylate)4 (DMSO)2], in [1], the IC50 came to 2800 nM and the “Percent Reactivity (SOD-like activity)” value is on record as 0.69%.

For the compound `CC(=O)Oc1ccccc1C(=O)[O-].CC(=O)Oc1ccccc1C(=O)[O-].CC(=O)Oc1ccccc1C(=O)[O-].CC(=O)Oc1ccccc1C(=O)[O-].CS(C)=O.CS(C)=O.CS(C)=O.CS(C)=O.[Cu+2].[Cu+2]` [Cu(II)2 (acetylsalicylate)4 (dimethylsulfoxide)4], the “superoxide scavenging (in words)” value in data set [1] is “superoxide scavengers”.

On to `CC(=O)Oc1ccccc1C(=O)[O-].CC(=O)Oc1ccccc1C(=O)[O-].CC(=O)Oc1ccccc1C(=O)[O-].CC(=O)Oc1ccccc1C(=O)[O-].[Cu+2].[Cu+2].c1ccncc1.c1ccncc1` [Cu(II)2 (acetylsalicylate)4 (pyridine)2], for which, in [1], the IC50 came to 2700 nM and the “Percent Reactivity (SOD-like activity)” value amounted to 0.32%.

Regarding `CC(=O)Oc1ccccc1C(=O)[O-].CC(=O)Oc1ccccc1C(=O)[O-].CC(=O)Oc1ccccc1C(=O)[O-].CC(=O)Oc1ccccc1C(=O)[O-].[Cu+2].[Cu+2].c1ccncc1.c1ccncc1.c1ccncc1.c1ccncc1` [Cu(II)2 (acetylsalicylate)4 (pyridine)4], in data set [1], the “superoxide scavenging (in words)” value is reported as “superoxide scavengers”.

Consider `CC(C)(C)c1cc(C(=O)[O-])c(O)c(C(C)(C)C)c1.CC(C)(C)c1cc(C(=O)[O-])c(O)c(C(C)(C)C)c1.[Cu+2]` [Cu(II)(3,5-ditertiarybutylsalicylate)2], for which, in data set [1], the “superoxide scavenging (in words)” value is reported as “superoxide scavengers”, the IC50 was 6200 nM and the “Percent Reactivity (SOD-like activity)” value is recorded as 0.74%.

Consider `O=C(O)c1ccccc1[O-].O=C(O)c1ccccc1[O-].[Cu+2]` [Cu(II)(salicylate)2], for which the “Rate of superoxide dismutation” value in [2] (Table I, footnote ** (Weser et al.)) is given as 1.6 × 10 M^-1 s^-1. Further, in data set [1], the “superoxide scavenging (in words)” value is “superoxide scavengers”, the IC50 came to 4600 nM and the “Percent Reactivity (SOD-like activity)” value stood at 0.65%.

Take `O=C([O-])CN(CCN(CC(=O)[O-])CC(=O)O)CC(=O)O.[Na+].[Na+]` [Na2 EDTA]: the “Rate, Cu(II)(L)2 + e^- aq” value in data set [3] was 1e+10 M⁻¹ s⁻¹. Further, the “Rate, Cu(II)(L)2 + HO^.” value in [4] was 4e+09 M⁻¹ s⁻¹.

`NCCCNCCSP(=O)(O)O` [WR2721, S-2-(3-aminopropylamino) ethyl-phosphorothioic acid]: in the data set with patients, the undesirable side effects result was “emesis, hypertension, hypotension, somnolence and allergy”.

Regarding Cu(II)2 (acetylsalicylate)4, in [1], the “superoxide scavenging (in words)” value was “superoxide scavengers”, the IC50 turned out to be 3100 nM and the “Percent Reactivity (SOD-like activity)” value was found to be 0.043%.

Consider bovine SOD: pure bovine SOD, for which, in data set [1] (pure bovine SOD, per unit of activity, pH 7.8), the “sensitivity of the assay, ug SOD per unit of activity” value was found to be 0.85 µg.

On to “copper 3,5-diisopropylsalicylate [Cu(II)(3,5-dips)2]”, for which the LD50 with rats (subcutaneous) was 240 +33 mg/kg. Further, the LD50/7 with rats (subcutaneous injection, 10080 min) is given as 240 mg/kg; in the data set with mice it was “at least 280 mg/kg”. The “predicted LD50 in human beings” value in the data set on human beings is reported as “approximately 250 mg/kg”. Further, the Rate of superoxide dismutation in [5] is 1e+09 to 2e+09 M⁻¹ s⁻¹. Moreover, the “superoxide scavenging (in words)” value in [1] is recorded as “superoxide scavengers”. Also, the IC50 in data set [1] came out at 2900 nM. Also, the “efficiency in disproportionating superoxide compared with Cu-Zn SOD (in words)” value in data set [1] (based on Table I) is reported as “not as efficient as Cu-Zn SOD”. In addition, the “mean SOD activity” value in data set [1] (modified assay, DMSO-KO2, pH 7.8) is on record as 17,400±1,800 units per milligram. Moreover, the “Percent Reactivity (SOD-like activity)” value in data set [1] is 0.70%. Moreover, the “day post-irradiation after which none died” value with lethally irradiated mice (0.49 mM/kg sc 3 hours before 10 Gy) is 18 days; in the data set with lethally irradiated mice (0.49 mM/kg sc 24 hours before 10 Gy), 19 days. Moreover, the “number of surviving mice” value in the data set with lethally irradiated mice (setting [6]) came out at 8 mice; in the data set on lethally irradiated mice (setting [7]), 14 mice. Further, the survival result in the data set on lethally irradiated mice (setting [6]) is reported as “Thirty-three”; with lethally irradiated mice (setting [7]), “Fifty-eight”; in the data set on lethally irradiated mice (pretreatment interval 3 h, restated in comparison with Cu-Zn SOD), 33%; in the data set with lethally irradiated mice (pretreatment interval 24 h, restated in comparison with Cu-Zn SOD), 58%. Moreover, the survivors entry with lethally irradiated mice (similarly treated mice, irradiated with 12 Gy) was “no survivors”. Further, the “protection compared with Cu-Zn SOD (in words)” value in the data set on lethally irradiated mice (vs Cu-Zn SOD data of Petkau, different conditions) is given as “much greater protection”.

Take “superoxide dismutase: enzyme that catalyzes the dismutation of O2^-; native SOD has a molecular weight of about 32,000 daltons”: the “rate of O2^- dismutation, k” value in [2] (Czapski 1971) is 1.3e+09 M⁻¹ s⁻¹.
